Data as given in patent publication US20140348861A1, “SYNTHETIC PEPTIDES AND RANDOM COPOLYMERS FOR THE TREATMENT OF AUTOIMMUNE DISORDERS” (NATIONAL INSTITUTE OF IMMUNOLOGY, priority 2011, published 2014).
Non-standard residues stand in square brackets, D forms with d. Primed or numbered codes have the meaning given here. No end group written: not given here. Kβ(3) = beta-amino acid residue (Lys analogue); β3hY = N[C@H](CC(=O)O)Cc1ccc(O)cc1; Kβ″ = beta-amino acid residue (K); β3hK = NCCCC[C@H](N)CC(=O)O; Yβ = β-tyrosine

Tests used:
spleenocytes = test: Th1/Th2 cytokine levels in culture supernates of spleenocytes from treatment groups; type: cell-based, mice; details: spleenocytes at the end of four weeks; FIG. 4
Protocol: Levels of various cytokines in culture supernates were determined by sandwich ELISA using multiplex cytokine ELISA kit (Millipore). Briefly, 100 μl of cell culture supernates from various groups were incubated with antibody (against various pro and anti-inflammatory cytokines) coated fluorescent polystyrene beads in 96 well microtiter plates, stained with PE-conjugated secondary antibody, provided in the kit and samples were acquired on […] (Bio-rad).
Effect of a group of analogs comprising analogs viz.
Effect of β^3-homo amino acid containing copolymers viz S101, S102 and S103 on Th1/Th2 cytokine balance was studied in comparison to other copolymers viz. GA, J91, J92, for which culture supernates of spleenocytes grown in the presence of various copolymers, were assayed using ELISA to determine the levels of various cytokines. […] Most noteworthy change was in the levels of IL-2 in the S101, S102 and S103 treated groups, where the levels were brought down by 60-70%.

[1] = tested on: SJL/J mice exhibiting MBP (85-109) induced relapsing remitting form of EAE; test: Therapeutic activity in MBP (85-109) induced relapsing remitting EAE, treatment from day 11; type: in vivo; details: for Therapeutic activity in comparison to GA (Therapeutic activity (Analogs) − Therapeutic activity GA) / Therapeutic activity in comparison to J5 (Therapeutic activity (Analogs) − Therapeutic activity (J5)) / Therapeutic activity = % reduction in cumulative clinical disability score: SJL/J mice, RR EAE; for Therapeutic activity in comparison to GA (Therapeutic activity (Analogs) − Therapeutic activity GA) / Therapeutic activity in comparison to J5 (Therapeutic activity (Analogs) − Therapeutic activity (J5)): 0.1 mg daily for two weeks; for Therapeutic activity = % reduction in cumulative clinical disability score: synthetic peptides, 0.1 mg daily for two weeks from day 11 post-immunization
Protocol: SJL/J and C57BL6/J mice procured from Jackson's laboratory (Bar Harbor, Me.) were maintained under standard housing conditions in the central animal facility at NII as per institutional ethical committee guidelines. 8-10 week old female SJL/J mice were used throughout the study.
(§1) To induce RR EAE or chronic progressive EAE, SJL/J or C57BL6/J mice were immunized subcutaneously with 0.2 mg of MBP (85-109) or 0.1 mg MOG (35-55) emulsified in CFA and 200 ng of pertussis toxin was injected intraperitoneally on day 0 and day 2 so as to permeablize the blood brain barrier. All the animals in various experimental groups were scored daily for clinical disability on a scale of 0-6 where 0=no neurological symptoms, 1=limp tail, 2=weakness of hind limbs or ataxia, 3=incomplete paralysis of hind limbs, 4=complete paralysis of hind limbs, 5=complete paralysis of all four limbs, 6=dead. Diseased animals were provided easy access to food and water.
GA, J91, J92, S101, S102, S103 for two weeks and scored for clinical disability.

[2] = tested on: relapsing remitting EAE in SJL/J mice; test: Prophylactic (pre-treatment) efficacy in relapsing remitting EAE; type: in vivo; details: pre-treatment 0.5 mg in IFA; FIG. 2i
Protocol: as §1

HLA DR2 = molecular target: T1, HLA DR2 (Homo sapiens, UniProt P01903+P01911); test: Inhibition of binding of biotinylated MBP (85-99) to HLA DR2; details: 5 μM competitor, 0.5 μM biotinylated MBP (85-99); FIG. 3
T1 construct: endogenous in cells; host or cells: MGAR lymphoblastoid B cell line (IHWG, Seattle)
Protocol: HLA DR2 molecules were affinity purified from MGAR (a lymphoblastoid B cell line expressing HLA DR2 obtained from IHWG, Seattle, Wash. —USA) cell line. Cells were cultured in RPMI 1640 supplemented with 10% FBS, 2 mM glutamine, 50 U/ml penicillin and 50 μg/ml streptomycin. The anti-DR antibody L243 was purchased from Santacruz Biotech.
HLA DR2 was purified to a purity of 90-95% by immunoaffinity purification. Briefly, MGAR cells were detergent solubilized to prepare the membrane fraction which was passed sequentially through sepharose CL-6B, normal mouse serum-affinity-gel, Protein A sepharose CL-4B and L243-protein A sepharose-CL-4B at a flow rate of around 10-11 ml/h. The final eluate was dialyzed against 0.1% deoxycholate, 10 mM Tris-HCl (pH 8.0) and concentrated using centricon concentrators from Millipore. Protein concentration was determined using bicinchoninic acid (BCA) assay (Sigma). The obtained protein fraction was also run on SDS-PAGE gel to confirm identity and purity.
Copolymers (GA, J91, J92, S101 to S109) and peptide analogs (S1-S82) at a final concentration of 5 μM were coincubated with biotinylated MBP (85-99; purchased from Bioconcept Labs Pvt. Ltd. India) at a final concentration of 0.5 μM and HLA DR2 (0.5 μg/sample) molecules for 40 h at 37° C. and transferred to a 96-well microtiter assay plates coated with 1 μg/well purified L243 mAb. Coating of microtiter plates was performed with 100 μl of L243 mAb in PBS for 18 h at 4° C. […] 3,3′,5,5′-tetramethylbenzidine (TMB, substrate for […]) was added to each well and absorbance at 410 nm was recorded on an ELISA reader (TECAN infinite M200).
Ability of analogs viz. […] Most of the analogs designed herein viz.
β^3-homo amino acid containing copolymers viz. […] Copolymers containing β^3-homo amino acids viz.

T1 sequence (P01903 26-254): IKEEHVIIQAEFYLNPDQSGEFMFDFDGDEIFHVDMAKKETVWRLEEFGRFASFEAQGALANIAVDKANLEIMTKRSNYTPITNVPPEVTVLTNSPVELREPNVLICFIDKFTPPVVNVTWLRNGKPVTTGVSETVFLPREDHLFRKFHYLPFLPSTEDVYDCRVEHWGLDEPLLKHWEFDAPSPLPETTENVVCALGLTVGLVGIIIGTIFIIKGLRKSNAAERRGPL
T1 sequence (P01911 30-266): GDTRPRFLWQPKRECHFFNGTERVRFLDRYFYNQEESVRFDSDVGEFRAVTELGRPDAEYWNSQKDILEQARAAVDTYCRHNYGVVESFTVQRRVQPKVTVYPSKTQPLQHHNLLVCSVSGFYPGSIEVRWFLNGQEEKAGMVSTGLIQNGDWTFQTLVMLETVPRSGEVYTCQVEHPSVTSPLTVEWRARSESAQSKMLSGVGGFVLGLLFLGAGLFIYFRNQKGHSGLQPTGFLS

Row | Substance | change in IL-4 levels (spleenocytes) | Therapeutic activity in comparison to GA (Therapeutic activity (Analogs) − Therapeutic activity GA) [1] | Therapeutic activity in comparison to J5 (Therapeutic activity (Analogs) − Therapeutic activity (J5)) [1] | Therapeutic activity = % reduction in cumulative clinical disability score [1] | effect on clinical onset of disease [2] | efficacy relative to GA ([1]; both treatment and pre-treatment scenarios) | delay of clinical onset of disease [2] | inhibition of binding of biotinylated MBP (85-99) to HLA DR2 (HLA DR2)
1 | EKPKVEAYKAAAAPA [Analog J5, reference compound] | only a marginal increase | 3.957% | 0% | 35.29% | no effect on clinical onset of disease | – | – | –
2 | Eβ^3Kβ^3Pβ^3Kβ^3Vβ^3Eβ^3Aβ^3Yβ^3Kβ^3Aβ^3Aβ^3Aβ^3Aβ^3Pβ^3Aβ^3 [Analog S15] | – | 30.91% | 26.95% | 62.25% | – | approximately two times better | ~3 days | –
3 | FPFNVPTNIVKVERH (Peptide analog) [scrambled MBP (85-99)] | – | – | – | – | – | – | – | ~15%
4 | KβVβEAYβKβAβAβAβAβ [Analog S65] | – | −5.989% | −9.947% | 25.35% | – | – | – | –
5 | KβVβEβAβYβKβ [Analog S71] | – | −14.9519% | −18.9091% | 16.39% | – | – | – | –
6 | KβVβEβAβYβKβAβAβAβAβ [Analog S64] | – | −7.38% | −11.3369% | 23.96% | – | – | – | –
7 | Kβ^3Vβ^3EAYβ^3Kβ^3 [Analog S34] | – | 25.03% | 21.07% | 56.36% | – | – | – | –
8 | Kβ^3Vβ^3EAYβ^3Kβ^3Aβ^3Aβ^3Aβ^3Aβ^3 [Analog S26] | – | 27.91% | 23.96% | 59.25% | – | – | – | –
9 | Kβ^3Vβ^3Eβ^3AβYβ^3Kβ^3AβAβAβAβ^3 [Analog S81] | – | 31.12% | 27.17% | 62.46% | – | – | – | –
10 | Kβ^3Vβ^3Eβ^3AβYβ^3Kβ^3AβAβAβ^3Aβ^3 [Analog S82] | – | 31.87% | 27.91% | 63.21% | – | – | – | –
11 | Kβ^3Vβ^3Eβ^3Aβ^3Yβ^3Kβ^3 [Analog S33] | – | 14.44% | 10.48% | 45.7754% | – | – | – | –
12 | VEAYK (Peptide analog) [Analog J5c, reference compound] | – | −9.947% | −13.9037% | 21.39% | – | – | – | –
13 | VEAYKβ (VEAY[Kβ″]) [Analog S73] | – | −10.0535% | −14.0107% | 21.28% | – | – | – | –
14 | VEAYKβ^3 (VEAY[β3hK]) [Analog S35] | – | −6.952% | −10.9091% | 24.39% | – | – | – | –
15 | VEAYβKβ (VEA[Yβ][Kβ(3)]) [Analog S74] | – | −9.947% | −13.9037% | 21.39% | – | – | – | –
16 | VEAYβ^3Kβ^3 (VEA[β3hY][β3hK]) [Analog S36] | – | −2.46% | −6.417% | 28.88% | – | – | – | –
17 | VEAβYβKβ [Analog S75] | – | −5.5615% | −9.519% | 25.7754% | – | – | – | –
18 | VEAβ^3Yβ^3Kβ^3 [Analog S37] | – | −0.9626% | −4.92% | 30.37% | – | – | – | –
19 | VEβAβYβKβ [Analog S76] | – | −7.914% | −11.8717% | 23.42% | – | – | – | –
20 | VEβ^3Aβ^3Yβ^3Kβ^3 [Analog S38] | – | −4.813% | −8.77% | 26.52% | – | – | – | –
21 | VβEAYβKβ [Analog S78] | – | −11.9037% | −15.861% | 19.43% | – | – | – | –
22 | VβEβAβYβKβ [Analog S77] | – | −18.8235% | −22.7808% | 12.51% | – | – | – | –
23 | Vβ^3EAYβ^3Kβ^3 [Analog S40] | – | 13.9% | 9.947% | 45.24% | – | – | – | –
24 | Vβ^3Eβ^3Aβ^3Yβ^3Kβ^3 [Analog S39] | – | 9.519% | 5.561% | 40.86% | – | – | – | –
